From patent publication US20260199323A1, “LIGAND COMPOUNDS FOR E3 UBIQUITIN LIGASE, PROTEIN DEGRADERS DEVELOPED ON BASIS OF LIGAND COMPOUNDS, AND USES THEREOF” (GLUETACS THERAPEUTICS (SHANGHAI) CO., LTD., priority 2021, published 2026)

Columns and labels:
HGC-27 = test: CCK-8 tumor cell proliferation, HGC-27; type: cell-based, Human; details: Table 14, designed based on CDK4/6 inhibitors; 96 h
Method: (§1) The tumor cells used herein were cultured in a cell culture medium listed in table 4 at 37° C. in an incubator with 5% CO2. Prior to experimentation, all cells used were correctly identified by STR profiling, and tested negative for mycoplasma through routine screenings.
(§2) IC50 values of the compounds of the present disclosure (including the compounds in Tables 1 and 3, and compounds of examples) were measured using the Meilun Cell Counting Kit-8 kit from Dalian Meilun Biotech Co., Ltd. Assay details are as follows: tumor cells were seeded in a 96-well plate at a density listed in Table 5. After 24 h, 100 μL of the inoculated cells were treated with 0.5 μL of the compounds of the present disclosure (including the compounds in Tables 1 and 3, and compounds of examples) at 10 different successively decreasing concentrations (starting at the highest concentration of 10 μM; 5-fold serial dilutions). After the cells were treated with the compounds of the present disclosure for a period of time, the cell viability detection reagent was added to the culture medium for cell viability assessment according to the instructions provided with the CCK-8 kit. […] The growth inhibition of the compounds of the present disclosure on cells was plotted by Prism Graphpad software, and the IC50 values of the compounds of the present disclosure were calculated therefrom.

SU-DHL-6 = test: CCK-8 tumor cell proliferation, SU-DHL-6; type: cell-based, Human; details: Table 14, designed based on CDK4/6 inhibitors; 72 h
Method: as §1, §2

SR = test: CCK-8 tumor cell proliferation, SR; type: cell-based, Human; details: Table 14, designed based on CDK4/6 inhibitors; 72 h
In short: (§3)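 Cell viability (CCK-8) after compound exposure; IC50 calculated. Cells seeded, treated after 24 h, maximum dose 10 μM, 5-fold serial dilutions over 10 concentrations.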

SK-OV-3 = test: CCK-8 tumor cell proliferation, SK-OV-3; details: Table 14, designed based on CDK4/6 inhibitors
Method: as §2

Ramos = test: CCK-8 tumor cell proliferation, Ramos; details: Homo sapiens, Table 9, designed based on SHP2 inhibitors, 72 h, read-out: IC50 for inhibiting the proliferation of tumor cells, Ramos
Method: as §1, §2

CCRF-CEM = test: CCK-8 tumor cell proliferation, CCRF-CEM; type: cell-based, Human; set-up: IC50 for inhibiting the proliferation of tumor cells, CCRF-CEM: scale not given here; details: 96 h
In short: as §3

Daudi = test: CCK-8 tumor cell proliferation, Daudi; set-up: species or system Human; details: Table 13, designed based on BCR-ABL inhibitors; 96 h
Method: as §1, §2

Kasumi-1 = test: CCK-8 tumor cell proliferation, Kasumi-1; type: cell-based, Human; details: 72 h
In short: as §3

K562 = test: CCK-8 tumor cell proliferation, K562; set-up: species or system Human; details: Table 13, designed based on BCR-ABL inhibitors; 72 h
Method: as §1, §2

Mino = test: CCK-8 tumor cell proliferation, Mino; type: cell-based, Human; details: Table 13, designed based on BCR-ABL inhibitors; 72 h
In short: as §3

CAL-62 = test: CCK-8 tumor cell proliferation, CAL-62; type: cell-based, Human; set-up: IC50 for inhibiting the proliferation of tumor cells, CAL-62: scale not given here; details: Table 13, designed based on BCR-ABL inhibitors; 72 h
In short: as §3

T47D = test: CCK-8 tumor cell proliferation, T47D; type: cell-based, Human; details: Table 6, designed based on STAT3 inhibitors; 96 h
Method: as §1, §2

SNU-182 = test: CCK-8 tumor cell proliferation, SNU-182; set-up: species or system Human; details: Table 6, designed based on STAT3 inhibitors; 96 h
Method: as §1, §2

MM.1S = test: CCK-8 tumor cell proliferation, MM.1S; type: cell-based; details: Table 6, designed based on STAT3 inhibitors; 72 h
In short: as §3

TMD8 = test: CCK-8 tumor cell proliferation, TMD8; set-up: species or system Human; details: Table 13, designed based on BCR-ABL inhibitors; 72 h
Method: as §1, §2

[1] = Table 13, designed based on BCR-ABL inhibitors
[2] = Table 6, designed based on STAT3 inhibitors

Cc1nc2c(F)cc(-c3nc(Nc4ccc(N5CCC(N6CCN(Cc7cc(F)c8c(c7)CN(C7CCC(=O)NC7=O)C8=O)CC6)CC5)cn4)ncc3F)cc2n1C(C)C (stereo not shown) [GT-03902, 3-(7-fluoro-5-((4-(1-(6-((5-fluoro-4-(4-fluoro-1-isopropyl-2-methyl-1H-benzo[d]imidazol-6-yl)pyrimidin-2-yl)amino)pyridin-3-yl)piperidin-4-yl)piperazin-1-yl)methyl)-1-oxoisoindolin-2-yl)piperidine-2,6-dione]
IC50 for inhibiting the proliferation of tumor cells, HGC-27 (HGC-27): A+
IC50 for inhibiting the proliferation of tumor cells, SU-DHL-6 (SU-DHL-6): A+
IC50 for inhibiting the proliferation of tumor cells, SR (SR): A+
IC50 for inhibiting the proliferation of tumor cells, SK-OV-3 (SK-OV-3): A+

CC1(N)CCN(c2cnc3c(-c4cccc(Cl)c4Cl)n[nH]c3n2)CC1 [GT-03336]
IC50 (Ramos): > 10 µM

Cc1ccc(C(=O)Nc2ccc(CN3CCN(Cc4ccc5c(c4)CN(C4CCC(=O)NC4=O)C5=O)CC3)c(C(F)(F)F)c2)cc1C#Cc1cnc2cccnn12 (stereo not shown) [GT-03804, N-(4-((4-((2-(2,6-dioxopiperidin-3-yl)-1-oxoisoindolin-5-yl)methyl)piperazin-1-yl)methyl)-3-(trifluoromethyl)phenyl)-3-(imidazo[1,2-b]pyridazin-3-ylethynyl)-4-methylbenzamide]
IC50 for inhibiting the proliferation of tumor cells, CCRF-CEM (CCRF-CEM; [1]): A+
IC50 for inhibiting the proliferation of tumor cells, Daudi (Daudi): A+
IC50 for inhibiting the proliferation of tumor cells, Kasumi-1 (Kasumi-1; [1]): A+
IC50 for inhibiting the proliferation of tumor cells, K562 (K562): A+
IC50 for inhibiting the proliferation of tumor cells, Mino (Mino): A+
IC50 for inhibiting the proliferation of tumor cells, CAL-62 (CAL-62): A+

Cc1nc2c(F)cc(-c3nc(Nc4ccc(N5CCC(N6CCN(Cc7ccc8c(c7F)CN(C7CCC(=O)NC7=O)C8=O)CC6)CC5)cn4)ncc3F)cc2n1C(C)C (stereo not shown) [GT-03900, 3-(4-fluoro-5-((4-(1-(6-((5-fluoro-4-(4-fluoro-1-isopropyl-2-methyl-1H-benzo[d]imidazol-6-yl)pyrimidin-2-yl)amino)pyridin-3-yl)piperidin-4-yl)piperazin-1-yl)methyl)-1-oxoisoindolin-2-yl)piperidine-2,6-dione]
IC50 for inhibiting the proliferation of tumor cells, HGC-27 (HGC-27): A+
IC50 for inhibiting the proliferation of tumor cells, SU-DHL-6 (SU-DHL-6): A+
IC50 for inhibiting the proliferation of tumor cells, SR (SR): A+
IC50 for inhibiting the proliferation of tumor cells, SK-OV-3 (SK-OV-3): A+

Cc1ccc(C(=O)Nc2ccc(N3CCN(Cc4ccc5c(c4)CN(C4CCC(=O)NC4=O)C5=O)CC3)c(C(F)(F)F)c2)cc1C#Cc1cnc2cccnn12 (stereo not shown) [GT-03805, N-(4-(4-((2-(2,6-dioxopiperidin-3-yl)-1-oxoisoindolin-5-yl)methyl)piperazin-1-yl)-3-(trifluoromethyl)phenyl)-3-(imidazo[1,2-b]pyridazin-3-ylethynyl)-4-methylbenzamide]
IC50 for inhibiting the proliferation of tumor cells, CCRF-CEM (CCRF-CEM; [1]): A+
IC50 for inhibiting the proliferation of tumor cells, K562 (K562): A+

Cc1nc(Nc2ncc(C(=O)Nc3c(C)cccc3Cl)s2)cc(N2CCN(Cc3ccc4c(c3)CN(C3CCC(=O)NC3=O)C4=O)CC2)n1 (stereo not shown) [GT-03215, N-(2-chloro-6-methylphenyl)-2-((6-(4-((2-(2,6-dioxopiperidin-3-yl)-1-oxoisoindolin-5-yl)methyl)piperazin-1-yl)-2-methylpyrimidin-4-yl)amino)thiazole-5-carboxamide]
IC50 for inhibiting the proliferation of tumor cells, Kasumi-1 (Kasumi-1; [1]): A+
IC50 for inhibiting the proliferation of tumor cells, K562 (K562): A+
IC50 for inhibiting the proliferation of tumor cells, Mino (Mino): A+

Cc1nc2c(F)cc(-c3nc(Nc4ccc(N5CCC(N6CCN(Cc7cccc8c7CN(C7CCC(=O)NC7=O)C8=O)CC6)CC5)cn4)ncc3F)cc2n1C(C)C (stereo not shown) [GT-03903, 3-(4-((4-(1-(6-((5-fluoro-4-(4-fluoro-1-isopropyl-2-methyl-1H-benzo[d]imidazol-6-yl)pyrimidin-2-yl)amino)pyridin-3-yl)piperidin-4-yl)piperazin-1-yl)methyl)-1-oxoisoindolin-2-yl)piperidine-2,6-dione]
IC50 for inhibiting the proliferation of tumor cells, HGC-27 (HGC-27): A+
IC50 for inhibiting the proliferation of tumor cells, SU-DHL-6 (SU-DHL-6): A+
IC50 for inhibiting the proliferation of tumor cells, CCRF-CEM (CCRF-CEM; Table 14, designed based on CDK4/6 inhibitors): A+
IC50 for inhibiting the proliferation of tumor cells, SR (SR): A+
IC50 for inhibiting the proliferation of tumor cells, SK-OV-3 (SK-OV-3): A+

O=C1CCC(N2Cc3cc(CNC(=O)c4cc5c(o4)C(=O)c4ccccc4C5=O)ccc3C2=O)C(=O)N1 (stereo not shown) [GT-03383, N-((2-(2,6-dioxopiperidin-3-yl)-1-oxoisoindolin-5-yl)methyl)-4,9-dioxo-4,9-dihydronaphtho[2,3-b]furan-2-carboxamide]
IC50 for inhibiting the proliferation of tumor cells, T47D (T47D): A+
IC50 for inhibiting the proliferation of tumor cells, CCRF-CEM (CCRF-CEM; [2]): A+
IC50 for inhibiting the proliferation of tumor cells, SNU-182 (SNU-182): A+
IC50 for inhibiting the proliferation of tumor cells, Kasumi-1 (Kasumi-1; [2]): A+
IC50 for inhibiting the proliferation of tumor cells, MM.1S (MM.1S): A+

CC1(N)CCN(c2cnc(-c3cccc(Cl)c3Cl)c(N)n2)CC1 [GT-03334]
IC50 (Ramos): > 10 µM

C[C@@H]1OCC2(CCN(c3cnc(Sc4ccnc(N)c4Cl)c(N)n3)CC2)[C@@H]1N [GT-03335]
IC50 (Ramos): > 10 µM

Cc1nc2c(F)cc(-c3nc(Nc4ccc(N5CCC(N6CCN(Cc7cc8c(cc7F)C(=O)N(C7CCC(=O)NC7=O)C8)CC6)CC5)cn4)ncc3F)cc2n1C(C)C (stereo not shown) [GT-03901, 3-(6-fluoro-5-((4-(1-(6-((5-fluoro-4-(4-fluoro-1-isopropyl-2-methyl-1H-benzo[d]imidazol-6-yl)pyrimidin-2-yl)amino)pyridin-3-yl)piperidin-4-yl)piperazin-1-yl)methyl)-1-oxoisoindolin-2-yl)piperidine-2,6-dione]
IC50 for inhibiting the proliferation of tumor cells, HGC-27 (HGC-27): A+
IC50 for inhibiting the proliferation of tumor cells, SU-DHL-6 (SU-DHL-6): A+
IC50 for inhibiting the proliferation of tumor cells, SR (SR): A+
IC50 for inhibiting the proliferation of tumor cells, SK-OV-3 (SK-OV-3): A+

Cc1ccc(NC(=O)c2ccc(CN(C)Cc3ccc4c(c3)CN(C3CCC(=O)NC3=O)C4=O)cc2)cc1Nc1nccc(-c2cccnc2)n1 (stereo not shown) [GT-03990, 4-((((2-(2,6-dioxopiperidin-3-yl)-1-oxoisoindolin-5-yl)methyl)(methyl)amino)methyl)-N-(4-methyl-3-((4-(pyridin-3-yl)pyrimidin-2-yl)amino)phenyl)benzamide]
IC50 for inhibiting the proliferation of tumor cells, TMD8 (TMD8): A+
